The text below walks through data of article PMC2954295 (Chemistry & Biology, 2010).

One may read the Ki as the dissociation constant of the complex between target and ligand, obtained from inhibition or displacement.

For one experiment, the target named is human HexB (Homo sapiens, UniProt P07686). The experiment in a line: inhibition kinetics with pNP-GlcNAc substrate, Lineweaver-Burk. It counts as biochemical.
For another experiment, the target named is T1, human OGA (O-GlcNAcase) (Homo sapiens, UniProt O60502).
T1 sequence (O60502 1-916): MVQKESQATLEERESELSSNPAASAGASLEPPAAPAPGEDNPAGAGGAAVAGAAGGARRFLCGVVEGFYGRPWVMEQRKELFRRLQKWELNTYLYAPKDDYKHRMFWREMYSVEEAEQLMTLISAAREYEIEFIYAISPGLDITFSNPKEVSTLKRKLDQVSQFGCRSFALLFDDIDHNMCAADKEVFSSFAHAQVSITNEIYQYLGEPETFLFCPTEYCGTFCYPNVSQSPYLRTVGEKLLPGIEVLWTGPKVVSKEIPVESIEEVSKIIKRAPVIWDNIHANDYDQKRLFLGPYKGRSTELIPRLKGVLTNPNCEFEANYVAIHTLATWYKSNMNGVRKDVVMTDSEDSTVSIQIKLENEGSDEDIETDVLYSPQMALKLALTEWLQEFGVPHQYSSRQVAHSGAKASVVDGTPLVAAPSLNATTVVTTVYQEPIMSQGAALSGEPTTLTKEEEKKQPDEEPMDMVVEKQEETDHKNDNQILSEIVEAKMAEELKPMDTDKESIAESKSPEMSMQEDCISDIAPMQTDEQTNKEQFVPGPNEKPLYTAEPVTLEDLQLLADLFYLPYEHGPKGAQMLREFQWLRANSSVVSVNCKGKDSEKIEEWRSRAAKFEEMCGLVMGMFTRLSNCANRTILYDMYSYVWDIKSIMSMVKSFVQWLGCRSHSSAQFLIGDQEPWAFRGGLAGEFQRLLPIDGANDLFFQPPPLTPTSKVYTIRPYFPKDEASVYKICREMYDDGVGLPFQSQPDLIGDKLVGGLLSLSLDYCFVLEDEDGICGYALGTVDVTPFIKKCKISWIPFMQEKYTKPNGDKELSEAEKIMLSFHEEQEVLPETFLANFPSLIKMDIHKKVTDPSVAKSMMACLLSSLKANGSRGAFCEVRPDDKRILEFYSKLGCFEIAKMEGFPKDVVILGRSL
The experiment in a line: continuous UV/Vis assay with pNP-GlcNAc substrate, recombinant enzyme. It is filed as biochemical.

Chain of human HexB (P07686 122-311): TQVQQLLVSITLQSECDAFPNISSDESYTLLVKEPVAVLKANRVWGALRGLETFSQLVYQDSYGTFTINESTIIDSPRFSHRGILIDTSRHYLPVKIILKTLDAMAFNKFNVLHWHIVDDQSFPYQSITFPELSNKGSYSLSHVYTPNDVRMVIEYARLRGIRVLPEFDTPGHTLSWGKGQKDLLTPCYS
Chain of human HexB (P07686 315-556): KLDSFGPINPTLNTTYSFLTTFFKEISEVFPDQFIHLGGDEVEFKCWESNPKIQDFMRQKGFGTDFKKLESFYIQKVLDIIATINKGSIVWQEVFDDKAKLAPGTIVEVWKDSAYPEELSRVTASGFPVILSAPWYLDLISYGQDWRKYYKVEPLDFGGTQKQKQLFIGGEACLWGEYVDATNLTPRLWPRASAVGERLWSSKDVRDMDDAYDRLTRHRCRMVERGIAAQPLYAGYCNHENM

On to `CC(=O)N[C@H]1CN2CC[C@H](O)[C@@H]2[C@@H](O)[C@@H]1O` [6-Ac-Cas], for which the Ki on human HexB stood at 250 nM; at human OGA (O-GlcNAcase) it was 300 nM.
